Test results: PubChem BioAssay (NCI)
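In this assay, cells in 96-well plates receive the compound at five concentrations for 48 hours. Endpoints are linearly interpolated between the surrounding concentrations. Definition used: TGI = concentration required for complete inhibition of growth.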

Assays:
Test in all cases: NCI-60 cell line screen, 48 h
RPMI-8226 leukemia = system: RPMI-8226 leukemia
DU-145 prostate = system: DU-145 prostate
HCC-2998 colon = system: HCC-2998 colon
OVCAR-5 ovarian = system: OVCAR-5 ovarian
UACC-62 melanoma = system: UACC-62 melanoma
MDA-MB-231 breast = system: MDA-MB-231 breast
NCI/ADR-RES ovarian = system: NCI/ADR-RES ovarian
TK-10 renal = system: TK-10 renal
NCI-H226 lung = system: NCI-H226 lung
OVCAR-4 ovarian = system: OVCAR-4 ovarian
OVCAR-8 ovarian = system: OVCAR-8 ovarian
PC-3 prostate = system: PC-3 prostate
SK-OV-3 ovarian = system: SK-OV-3 ovarian
MOLT-4 leukemia = system: MOLT-4 leukemia
U251 CNS = system: U251 CNS
HCT-116 colon = system: HCT-116 colon
HL-60(TB) leukemia = system: HL-60(TB) leukemia
MALME-3M melanoma = system: MALME-3M melanoma
SR leukemia = system: SR leukemia
T-47D breast = system: T-47D breast

Measured: TGI

COc1ccc(/C=C/C(=O)/C=C/c2ccc(OC)cc2)cc1
68.4 µM: SR leukemia
23.3 µM: HCT-116 colon
31.4 µM: OVCAR-8 ovarian
68.6 µM: U251 CNS
15.7 µM: HCC-2998 colon
53.7 µM: HL-60(TB) leukemia
98.3 µM: NCI-H226 lung
55.9 µM: RPMI-8226 leukemia
> 100 µM: all other assays above

CCOP(=O)(CCCC(O)CNc1cc(Cl)nc(N)n1)OCC (stereo not given)
> 100 µM: all assays above

CC(OC(C)(C)C)[C@H](NC(=O)OC(C)(C)C)C(=O)O (stereo not given in full)
> 100 µM: all assays above

O=C1c2ccccc2C(=O)[C@@]23O[C@@]12C1(Oc2cccc4cccc(c24)O1)[C@@H]1O[C@@H]1[C@@H]3O
41.1 µM: MDA-MB-231 breast
> 100 µM: SR leukemia
39.3 µM: OVCAR-5 ovarian
> 47.6 µM: U251 CNS
> 23.1 µM: RPMI-8226 leukemia
4.89 µM: HL-60(TB) leukemia
33.2 µM: DU-145 prostate
28.6 µM: SK-OV-3 ovarian
29.8 µM: T-47D breast
27.2 µM: UACC-62 melanoma
17.4 µM: OVCAR-4 ovarian
28.9 µM: NCI-H226 lung
22 µM: HCC-2998 colon
30.3 µM: MALME-3M melanoma
24.5 µM: MOLT-4 leukemia
15.7 µM: NCI/ADR-RES ovarian
15.1 µM: HCT-116 colon
12.8 µM: OVCAR-8 ovarian
34.3 µM: PC-3 prostate
15.9 µM: TK-10 renal

O=c1[nH]/c(=C/c2ccc(OCc3ccccc3)cn2)c(=O)[nH]/c1=C/c1ccc([N+](=O)[O-])cc1
> 100 µM: all assays above

CC1(C)O[C@@H]2[C@@H](COC(=O)c3ccccc3)C[C@@H](C#N)[C@@H]2O1
> 100 µM: all assays above

CC(C)CC1C(=O)NCCC(NC(=O)C(N)Cc2ccc(O)cc2)C(=O)NC(Cc2ccccc2)C(=O)NC(Cc2ccccc2)NC1=O (stereo not given)
> 100 µM: all assays above
